According to patent US9968649B2, “Vasopressin formulations for use in treatment of hypotension” (Par Pharmaceutical, Inc., priority 2015, dated 2018):
Values joined by “and” are separate entries in the source; they are usually repeats but may differ in a detail not shown here. Equal values may be shown once.

Test: Effect of temperature on vasopressin formulations: HPLC vasopressin assay and impurities on storage (Example 8)
Type: physicochemical
Description: To analyze degradation products of vasopressin that can be present in an illustrative formulation of vasopressin, gradient HPLC was performed to separate vasopressin from related peptides and formulation components. TABLE 2 below depicts the results of the experiment detailing the chemical formula, relative retention time (RRT), molar mass, and structure of vasopressin and detected impurities.
Vasopressin was detected in the eluent using UV absorbance. The concentration of vasopressin in the sample was determined by the external standard method, where the peak area of vasopressin in sample injections was compared to the peak area of vasopressin reference standards in a solution of known concentration. The concentrations of related peptide impurities in the sample were also determined using the external standard method, using the vasopressin reference standard peak area and a unit relative response factor. An impurities marker solution was used to determine the relative retention times of identified related peptides at the time of analysis.
To test the effect of temperature on the stability of vasopressin formulation, solutions containing 20 units/mL vasopressin and chlorobutanol, adjusted to pH 3.5 with acetic acid, were prepared. One mL of each vasopressin formulations was then filled into 3 cc vials. Each Vasopressin Formulation was stored either inverted or upright for at least three months, up to 24 months, at: (i) 5° C.; (ii) 25° C. and 60% relative humidity; or (iii) 40° C. and 75% humidity, and the amount of vasopressin (U/mL) and % total impurities were measured periodically. TABLES 7-12 below display the results of the experiments at 5° C. The results of the experiments at 25° C. are included in TABLES 13-18. All of the experiments were performed in triplicate. The results of the experiments at 40° C. are included in TABLES 19-24. For each temperature tested, three lots of the vasopressin formulation were stored for 24 months (5° C. and 25° C.) and 3 months (40° C.), and measurements were taken at regular intervals during the testing periods. “NMT” as used in the tables denotes “not more than.”
Experiments were also conducted on the same samples above over the course of the experiments to measure the amount of individual impurities in the samples, pH of the samples, chlorobutanol content, particulate matter, antimicrobial effectiveness, and bacterial endotoxin levels (TABLES 25-42). (NR=no reading; ND=not determined; UI=unidentified impurity).

[1] = inverted, 5° C., Initial, listed as AVP
[2] = inverted, 25° C. and 60% Relative Humidity, 3 months, listed as AVP
[3] = inverted, 25° C. and 60% Relative Humidity, 6 months, listed as AVP
[4] = inverted, 25° C. and 60% Relative Humidity, 9 months, listed as AVP
[5] = inverted, 25° C. and 60% Relative Humidity, 12 months, listed as AVP
[6] = inverted, 25° C. and 60% Relative Humidity, 24 months, listed as AVP
[7] = inverted, 25° C. and 60% Relative Humidity, Initial, listed as AVP
[8] = inverted, 40° C. (75% humidity), 1 month
[9] = inverted, 40° C. (75% humidity), 2 months
[10] = inverted, 40° C. (75% humidity), 3 months
[11] = inverted, 40° C. (75% humidity), Initial
[12] = upright, 5° C., 1 month, listed as AVP
[13] = upright, 5° C., 2 months, listed as AVP
[14] = upright, 5° C., 3 months, listed as AVP
[15] = upright, 5° C., 6 months, listed as AVP
[16] = upright, 5° C., 9 months, listed as AVP
[17] = upright, 5° C., 12 months, listed as AVP
[18] = upright, 5° C., 18 months, listed as AVP
[19] = upright, 5° C., 24 months, listed as AVP
[20] = upright, 5° C., Initial, listed as AVP
[21] = upright, 25° C. and 60% Relative Humidity, 3 months, listed as AVP
[22] = upright, 25° C. and 60% Relative Humidity, 6 months, listed as AVP
[23] = upright, 25° C. and 60% Relative Humidity, 9 months, listed as AVP
[24] = upright, 25° C. and 60% Relative Humidity, 12 months, listed as AVP
[25] = upright, 25° C. and 60% Relative Humidity, 18 months, listed as AVP
[26] = upright, 25° C. and 60% Relative Humidity, 24 months, listed as AVP
[27] = upright, 25° C. and 60% Relative Humidity, Initial, listed as AVP

In the case of NC(=O)CC[C@@H]1NC(=O)[C@H](Cc2ccccc2)NC(=O)[C@H](Cc2ccc(O)cc2)NC(=O)[C@@H](N)CSSC[C@@H](C(=O)N2CCC[C@H]2C(=O)N[C@@H](CCCN=C(N)N)C(=O)NCC(N)=O)NC(=O)[C@H](CC(N)=O)NC1=O [Vasopressin, Cyclo (1-6) L-Cysteinyl-L-Tyrosyl-L-Phenylalanyl-L-Glutaminyl-L-Asparaginyl-L-Cysteinyl-L-Prolyl-L-Arginyl-L-Glycinamide], the “Related Substances: Acetyl-AVP” value (inverted, 5° C., Initial) is reported as 0.3%, the “Related Substances: Asp5-AVP” value (inverted, 5° C., Initial) is reported as 0.1% and the “Related Substances: SEQ ID NO.: 2” value (inverted, 5° C., Initial) is reported as 0.5% and 0.6%. For the same compound, the “Related Substances: SEQ ID NO.: 4” value (inverted, 5° C., Initial) was 0.6% and 0.5%, the “Related Substances: SEQ ID NO.: 10” value (inverted, 5° C., Initial) was 0.3% and the “Related Substances: UI-0.75-0.78” value (inverted, 5° C., Initial) was 0.2%. For the same compound, the “Related Substances: UI-0.83-0.84” value (inverted, 5° C., Initial) was 0.1%, the “Related Substances: UI-1.02-1.03” value (inverted, 5° C., Initial) was 0.2% and the “Related Substances: UI-1.03” value (inverted, 5° C., Initial) was 0.2%. For the same compound, the “Related Substances: UI-1.85” value (inverted, 5° C., Initial) was 0.2%, the “Related Substances: UI-2.05” value (inverted, 5° C., Initial) was 0.1% and 0.2% and the “Vasopressin (AVP) Assay” value (inverted, 5° C., Initial) was 19.4 U/mL and 19.7 U/mL. For the same compound, the “Total Impurities” value [1] was 2.3% and 2.7% and 2.2%, the “Vasopressin (AVP) Assay” value [1] was 19.4 U/mL and 19.7 U/mL and the “AVP Assay” value [2] was 19.4 U/mL and 19.7 U/mL and 19.6 U/mL. The “Total Impurities” value [2] was 2.4% and 2.5% and 2.6%, the “AVP Assay” value [3] was 19.1 U/mL and 19.3 U/mL and 19.2 U/mL and the “Total Impurities” value [3] was 3.7% and 3.4% and 3.3%. The “AVP Assay” value [4] was 18.8 U/mL and 19 U/mL, the “Total Impurities” value [4] was 4.7% and 4.6% and the “AVP Assay” value [5] was 18.3 U/mL and 18.6 U/mL and 18.7 U/mL. For the same compound, the “Total Impurities” value [5] was 5.9% and 5.6%, the “Total Impurities” value (inverted, 25° C. and 60% Relative Humidity, 18 months) was 9.0% and the “AVP Assay” value (inverted, 25° C. and 60% Relative Humidity, 18 months, listed as AVP) was 17.5 U/mL and 17.6 U/mL and 18 U/mL. The “AVP Assay” value [6] was 17.3 U/mL and 17.6 U/mL and 17.4 U/mL, the “Total Impurities” value [6] was 13.6% and 13.4% and 12.9% and the “AVP Assay” value [7] was 19.8 U/mL and 20.1 U/mL and 19.9 U/mL. The “Total Impurities” value [7] was 1.1% and 1.3% and 1.5%, the “Total Impurities” value [8] was 3.7% and 3.6% and the “Vasopressin Assay” value [8] was 19.1 U/mL and 19.3 U/mL and 19.2 U/mL. For the same compound, the “Total Impurities” value [9] was 7.3%, the “Vasopressin Assay” value [9] was 18.6 U/mL and 18.7 U/mL and 18.3 U/mL and the “Total Impurities” value [10] was 10.6% and 10.3%. For the same compound, the “Vasopressin Assay” value [10] was 17.3 U/mL and 17.6 U/mL and 17.4 U/mL, the “Total Impurities” value [11] was 1.1% and 1.3% and the “Vasopressin Assay” value [11] was 19.8 U/mL and 20.1 U/mL and 19.9 U/mL. For the same compound, the “Related Substances: Acetyl-AVP” value (inverted, 40° C., 1 month) was 0.2%, the “Related Substances: Asp5-AVP” value (inverted, 40° C., 1 month) was 0.2% and the “Related Substances: D-Asn-AVP” value (inverted, 40° C., 1 month) was 0.4%. For the same compound, the “Related Substances: SEQ ID NO.: 2” value (inverted, 40° C., 1 month) was 1.0%, the “Related Substances: SEQ ID NO.: 4” value (inverted, 40° C., 1 month) was 1.1% and the “Related Substances: UI-0.13” value (inverted, 40° C., 1 month) was 0.1%. The “Related Substances: UI-1.02-1.03” value (inverted, 40° C., 1 month) was 0.3%, the “Related Substances: UI-1.56-1.57” value (inverted, 40° C., 1 month) was 0.2% and the “Related Substances: UI-1.93” value (inverted, 40° C., 1 month) was 0.1%. For the same compound, the “Related Substances: Acetyl-AVP” value (inverted, 40° C., 2 months) was 0.2%, the “Related Substances: Asp5-AVP” value (inverted, 40° C., 2 months) was 0.5% and the “Related Substances: D-Asn-AVP” value (inverted, 40° C., 2 months) was 0.3%. For the same compound, the “Related Substances: SEQ ID NO.: 2” value (inverted, 40° C., 2 months) was 2.4%, the “Related Substances: SEQ ID NO.: 4” value (inverted, 40° C., 2 months) was 2.7% and the “Related Substances: UI-1.02-1.03” value (inverted, 40° C., 2 months) was 0.2%. For the same compound, the “Related Substances: UI-1.56-1.57” value (inverted, 40° C., 2 months) was 0.4%, the “Related Substances: UI-1.83-1.85” value (inverted, 40° C., 2 months) was 0.2% and the “Related Substances: UI-1.87-1.88” value (inverted, 40° C., 2 months) was 0.2%. For the same compound, the “Related Substances: UI-2.05-2.08” value (inverted, 40° C., 2 months) was 0.2%, the “Related Substances: Acetyl-AVP” value (inverted, 40° C., 3 months) was 0.2% and the “Related Substances: Asp5-AVP” value (inverted, 40° C., 3 months) was 0.8%. For the same compound, the “Related Substances: D-Asn-AVP” value (inverted, 40° C., 3 months) was 0.3%, the “Related Substances: SEQ ID NO.: 2” value (inverted, 40° C., 3 months) was 3.8% and the “Related Substances: SEQ ID NO.: 4” value (inverted, 40° C., 3 months) was 4.3%. The “Related Substances: UI-1.02-1.03” value (inverted, 40° C., 3 months) was 0.3%, the “Related Substances: UI-1.18” value (inverted, 40° C., 3 months) was 0.2% and the “Related Substances: UI-1.56-1.57” value (inverted, 40° C., 3 months) was 0.4%. The “Related Substances: UI-1.83-1.85” value (inverted, 40° C., 3 months) was 0.2%, the “Related Substances: UI-1.87-1.88” value (inverted, 40° C., 3 months) was 0.2% and the “Related Substances: Acetyl-AVP” value (inverted, 40° C., Initial) was 0.3%. The “Related Substances: D-Asn-AVP” value (inverted, 40° C., Initial) was 0.3%, the “Related Substances: SEQ ID NO.: 2” value (inverted, 40° C., Initial) was 0.1% and the “Related Substances: SEQ ID NO.: 4” value (inverted, 40° C., Initial) was 0.1%. The “Related Substances: UI-1.02-1.03” value (inverted, 40° C., Initial) was 0.2%, the “AVP Assay” value [12] was 19.5 U/mL and 19.7 U/mL and the “Total Impurities” value [12] was 2.1% and 1.8%. The “AVP Assay” value [13] was 19.4 U/mL and 19.6 U/mL, the “Total Impurities” value [13] was 2.1% and 2.2% and 2.0% and the “AVP Assay” value [14] was 19.4 U/mL and 19.7 U/mL. The “Total Impurities” value [14] was 2.3% and 2.2%, the “AVP Assay” value [15] was 19.5 U/mL and 19.8 U/mL and the “Total Impurities” value [15] was 2.1% and 2.2%. The “AVP Assay” value [16] was 19.5 U/mL and 19.7 U/mL, the “Total Impurities” value [16] was 2.3% and 2.1% and the “AVP Assay” value [17] was 19.5 U/mL and 19.8 U/mL and 19.9 U/mL. The “Total Impurities” value [17] was 2.5% and 2.6% and 2.4%, the “AVP Assay” value [18] was 19.4 U/mL and 19.7 U/mL and 19.8 U/mL and the “Total Impurities” value [18] was 2.9% and 2.8%. The “AVP Assay” value [19] was 19.3 U/mL and 19.5 U/mL, the “Total Impurities” value [19] was 2.9% and 2.8% and 2.7% and the “AVP Assay” value [20] was 19.4 U/mL and 19.7 U/mL. For the same compound, the “Total Impurities” value [20] was 2.3% and 2.7% and 2.2%, the “AVP Assay” value [21] was 19.4 U/mL and 19.7 U/mL and 19.6 U/mL and the “Total Impurities” value [21] was 2.4% and 2.5%. The “AVP Assay” value [22] was 19.1 U/mL and 19.4 U/mL and 19.2 U/mL, the “Total Impurities” value [22] was 3.2% and 3.3% and 3.7% and the “AVP Assay” value [23] was 18.8 U/mL and 18.9 U/mL and 19 U/mL. The “Total Impurities” value [23] was 4.8% and 4.5% and 4.7%, the “AVP Assay” value [24] was 18.3 U/mL and 18.6 U/mL and 18.5 U/mL and the “Total Impurities” value [24] was 5.6% and 5.7% and 5.9%. For the same compound, the “AVP Assay” value (upright, 25° C. and 60% Relative Humidity, 18 months) was 18.1 U/mL, the “AVP Assay” value [25] was 17.5 U/mL and 17.8 U/mL and the “Total Impurities” value [25] was 9.2% and 9.1%. For the same compound, the “Total Impurities” value (upright, 25° C. and 60% Relative Humidity, 24 months) was 13.3%, the “AVP Assay” value [26] was 17.4 U/mL and 17.7 U/mL and the “Total Impurities” value [26] was 13.1%. The “AVP Assay” value [27] was 19.8 U/mL and 20.1 U/mL and 19.9 U/mL and the “Total Impurities” value [27] was 1.1% and 1.3% and 1.5%.
